Data reported in patent publication US12115182B2, “Adenosine A2A agonists for the treatment of cytokine storm syndrome” (priority 2021, dated 2024).
Entries after “also recorded” stand apart in the source; their conditions may differ.

Key:
COVID-19 patients = test: Regadenoson infusion in hospitalized COVID-19 patients: safety and clinical monitoring; assay type: in vivo, human; conditions: for toxicities / side effects (nausea): during infusion or 30 days of follow-up; for SpO2: before vs 24 hours after RA infusion, pulse oximetry, N=5; for blood pressure: during and post RA infusion
Experimental: (§1) In cohort 1 of this trial, we tested the safety, tolerability, and toxicity of regadenoson in 5 COVID-19 patients (WHO stages 4-5) receiving supplemental oxygen without mechanical ventilation. All subjects received an infused loading dose of 5.0 μg/kg up to a maximum of 400 μg over 30 minutes, followed by a maintenance dose of 1.44 μg/kg/hr for 6 hours. Toxicity of regadenoson was graded by using Common Terminology for Adverse Events Criteria. Vital signs, pulse oximetry, arterial blood gas, laboratory studies, and electrocardiograms were performed on a schedule commensurate with level of care to identify potential risk of the study drug during and 12 hours post infusion. The trial was monitored by an NIH designated DSMB. Peripheral blood samples were collected at 4 timepoints. Along with clinical monitoring, plasma levels of cytokines (14-plex Luminex panel) were measured at various time points. Cytokine data were analyzed by SAS 9.5 PROC MIXED. Activation of peripheral blood mononuclear cells including iNKT cells was analyzed by flow cytometry. Flow cytometry data were analyzed by FCS Express 7 Research edition and GraphPad Prism v9. The plasma levels of regadenoson were determined via liquid chromatography-mass spectrometry.
Consented Covid-19 patients were treated with RA administered intravenously using a pediatric infusion pump at a loading dose rate of 5 μg/kg/hr for 30 min followed by a maintenance dose of 1.44 μg/kg/hr for 6 hours. Subjects' vital signs including oxygen saturation (SpO2), blood pressure, heart rate and respiratory rate were monitored throughout RA infusion.
Blood samples were drawn as a source of peripheral blood mononuclear cells (PBMCs). Cells were frozen in 10% DMSO and thawed for analysis of live cells by flow cytometry. Cytokines, CRP, and D dimer levels were measured in plasma. Blood samples were collected just prior to the start of RA infusion (0 hr), just prior to the end of the loading dose (30 min), 4 hours into the maintenance dose (4.5 hr), and the next day (24 hr).

[1] = Plasma levels of regadenoson in COVID-19 patients (LC-MS); assay type: in vivo, human; conditions: loading dose then 1.44 μg/kg/hr for 6 hours
Experimental: as §1

SARS-CoV-2 = test: Regadenoson in SARS-CoV-2-infected K18-ACE2 mice: survival; assay type: in vivo, mouse; conditions: for survival / mortality of infected K18-ACE2 mice: 1.44 μg/kg/hr, 7-day Alzet pump, vs saline
[2] = system: soluble receptor for advanced glycation end-products (sRAGE); test: Plasma sRAGE in lung transplant recipients; assay type: in vivo, human
Experimental: Blood was drawn for cytokine/chemokine, damage associated molecular patterns (DAMPs) at the following different timepoints: 1) before infusion (baseline), 2) 15 minutes before reperfusion of the 1st lung, 3) 30 minutes after reperfusion of 1st lung, 4) 30 minutes after reperfusion of 2nd lung, and 5) 6 hours after reperfusion of 1st lung.
The cytokines/chemokines, HMGB1 and sRAGE were determined at The University of Virginia Flow Cytometry Core (RRID: SCR 017829) as previously described (LAU et al., J Heart Lung Transplant, (2020), 39:563-570). The customized 11-plex cytokine panel detects IL-1, IL-2, IL-6, IL-7, IL-8, IL-10, IL-12P40, IL-12P70, IL-17, TNFa, and IFN-γ (Millipore Sigma, Burlington, MA).
We designed this trial mainly as a Phase I safety and feasibility study that would allow an optimal infusional dose to be determined based on dose-limiting toxicities identified in lung transplant recipients. We also evaluated the potential efficacy by clinical outcomes and the lab evaluation of various cytokines/chemokines, DAMPs and enzymes. […] HMGB1 and sRAGE levels were measured using a customized human Cytokine/Chemokine multiplex immunoassay (Millipore Sigma, Burlington, MA) at The University of Virginia Flow Cytometry Core (RRID: SCR_01 7829) as previously described (LAU et al., J Heart Lung Transplant, (2020), 39:563-570).

MMP-9 = test: Gelatin zymography of plasma MMP-9 in lung transplant recipients; assay type: in vivo, human; conditions: low and high dose vs control, 30 minutes after 1st and 2nd lung reperfusion
Experimental: We designed this trial mainly as a Phase I safety and feasibility study that would allow an optimal infusional dose to be determined based on dose-limiting toxicities identified in lung transplant recipients. We also evaluated the potential efficacy by clinical outcomes and the lab evaluation of various cytokines/chemokines, DAMPs and enzymes. Blood was drawn for cytokine/chemokine, DAMPs and MMP-2/-9 analysis at the following different timepoints: 1) before infusion, 2) 15 minutes before reperfusion of the 1st lung, 3) 30 minutes after reperfusion of 1st lung, 4) 30 minutes after reperfusion of 2nd lung, and 5) 6 hours after reperfusion of 1st lung. HMGB1 and sRAGE levels were measured using a customized human Cytokine/Chemokine multiplex immunoassay (Millipore Sigma, Burlington, MA) at The University of Virginia Flow Cytometry Core (RRID: SCR_01 7829) as previously described (LAU et al., J Heart Lung Transplant, (2020), 39:563-570).
Plasma samples were collected as described above. Protein concentrations were determined with BCA protein assay. Equal amounts of proteins (20 μg) were loaded in each lane for MMP-2 and-9 gelatinolytic activity detection by use of gelatin zymography as our previous publications (ZHAO et al., J Biol Chem, (2003), 278:15056-15064; ZHAO et al., Am J Physiol Lung Cell Mol Physiol, (2011), 300: L718-729).

## CNC(=O)c1cnn(-c2nc(N)c3ncn([C@@H]4O[C@H](CO)[C@@H](O)[C@H]4O)c3n2)c1 [Regadenoson]
COVID-19 patients; 5 COVID-19 patients
  toxicities / side effects (nausea): Transient and self-limiting nausea was reported by a single subject
COVID-19 patients; 5 COVID-19 patients, listed as RA
  toxicities / side effects (nausea): 1 case of transient self-limiting nausea, but no other toxicities or reportable side effects
COVID-19 patients; 5 COVID-19 patients, loading dose 5.0 μg/kg over 30 minutes, maintenance 1.44 μg/kg/hr for 6 hours
  serious adverse events: No serious adverse events were observed
COVID-19 patients; 5 patients, all recovered
  time to discharge: 3 to 9 days
COVID-19 patients; 24 hours post RA infusion, n=5
  D dimer levels: significantly decreased
COVID-19 patients; Case 3, 88% on admission
  SpO2 after the RA infusion: 97%
COVID-19 patients
  SpO2: significantly less (P<0.05) than 24 hours after treatment; also recorded: statistically significant difference
COVID-19 patients; listed as RA
  SpO2: significantly further elevated
COVID-19 patients; n=5
  blood pressure: no significant changes
COVID-19 patients; n=5, listed as RA
  blood pressure: remain stable
COVID-19 patients; in 3 of 4 patients, 24 hours after RA infusion
  CRP levels reduced by: > 50%
COVID-19 patients; throughout the infusion and 12 hours post infusion
  vital signs: stable
COVID-19 patients; within 24 hours of RA treatment
  subjective symptoms: subjective improvement in all subjects
[1]
  median peak plasma levels of regadenoson: 14.24 ng/mL
  peak plasma levels of regadenoson, range: 3.64 to 78.64 ng/mL
SARS-CoV-2; 1.44 μg/kg/hr subcutaneous infusion, 7-day pump, mostly on day 7
  treated mice died: 50%
SARS-CoV-2
  survival / mortality of infected K18-ACE2 mice: increases survival
SARS-CoV-2; listed as RA
  survival / mortality of infected K18-ACE2 mice: decreases mortality
[2]; 30 minutes post 1st lung reperfusion (low dose) and 30 minutes post 2nd lung reperfusion (low and high dose), P<0.0001 vs control
  transplantation-induced plasma levels of sRAGE: significantly diminished; also recorded: significantly reduced
[2]; high dose, 30 minutes post the 1st lung reperfusion, P=0.0656
  plasma sRAGE level: decreased in trend
MMP-9
  gelatinolytic activity of MMP-9 in plasma: significantly decreased
